{
  "source": "patent US6395729B1",
  "about": "“Use of pyridazino[4,5-b]indole-1-acetamide derivatives for preparing medicines for treating diseases related to the dysfunction of peripheral benzodiazepin receptors” (Sanofi-Synthelabo, priority 1999, dated 2002)",
  "key": {"[1]": {"tested_on": "kidneys (renal ischaemia-reinfusion)", "experiment": "Renoprotective effects, renal artery occlusion-reinfusion in rats", "type": "in vivo, rat", "conditions": "3 mg/kg i.p. 60 min before the occlusion", "method": "Study of the Renoprotective Effects\nThe experiment is carried out on Sprague-Dawley male rats (Charles River France) of 270 to 330 g. The animals are anaesthetized with pentobarbital (60 mg/kg i.p.), intubated and artificially ventilated, their temperature is maintained between 37 and 38° C.\nA 3 cm laparotomy is performed on the animal in dorsal decubitus, the right and left renal arteries are exposed and occluded for 30 min, and then the kidneys are reinfused under visual monitoring and the incision is closed. The serum creatinine and urea nitrogen levels are determined from blood samples collected in the orbital sinus, at D0 (before anaesthesia), and then at D1, D2, D3, D4, D8 (after 1 occlusion-reinfusion).\nThe compound to be studied, or its vehicle (Tween 80 at 2%) is administered at the dose of 3 mg/kg by the i.p. route 60 min before the occlusion."}, "[2]": {"tested_on": "motoneurons of the facial nucleus", "experiment": "Survival of the motoneurons after cutting of the facial nerve in 4-day-old rats", "type": "in vivo, rat", "conditions": "7 d treatment, i.p. route", "method": "Test of Survival of the Motoneurons After Cutting of the Facial Nerve in 4-day-old Rats\nAfter lesioning of the facial nerve in immature rats, the motoneurons of the facial nucleus undergo neuronal death by apoptosis. The evaluation of neuronal survival is carried out using histological and neuronal counting methods.\n4-Day-old immature rats are anaesthetized with pentobarbital (3 mg/kg by the i.p. route). The right facial nerve is exposed and cut, where it leaves the stylomastoid foramen. After regaining consciousness, the young rats are returned to their mothers and treated, for 7 d, by one or two daily administrations, by the oral or intraperitoneal route, at doses ranging from 1 to 10 mg/kg. 7 d after the lesioning, the animals are decapitated and the brains frozen in isopentane at −40° C. The facial nucleus is cut using a cryostat, into 10 μm sections, in its entirety. The motoneurons are stained with cresyl violet and counted with the aid of the Histo™ software (Biocom™)."}, "[3]": {"tested_on": "hearts isolated from rabbits", "experiment": "Cardioprotective effects on isolated rabbit hearts subjected to regional ischaemia and reinfusion", "design": "left ventricular pressure, percentage of preischaemic recovery / contracture during reinfusion / maximum and minimum dP/dt values and double frequency-pressure product: dose or concentration left out as unconfirmed", "method": "Study of the Cardioprotective Effects\nThe cardioprotective effects were studied on hearts isolated from rabbits subjected to a regional ischaemia and to a reinfusion. The size of infarction as well as the recovery of the contractile function upon reinfusion were measured.\nNew Zealand rabbits (2.3 to 2.5 kg, ESD France) are anaesthetized with a ketamine-xylasine mixture and heparinized. The heart is removed and rapidly infused by the retrograde aortic route at a pressure of 75 mmHg with a Krebs Henselheit-type solution. A balloon is introduced into the left ventricle and a telediastolic pressure of 5 mmHg is applied. After a stabilizing period of 20 min, the compound to be studied (1 mM) or the vehicle is added to the infusion solution 15 min before the ischaemia and during the entire duration of the experiment. The regional ischaemia is created by complete ligation of the left coronary artery for 30 min, the heart then being reinfused for 2 h.\nThe ventricular pressure, heart rate and coronary output parameters are monitored during the whole experiment.\nAfter the reinfusion, the coronary artery is again occluded and China ink is infused in order to delimit the area at risk. Transverse sections are then prepared and incubated in a 1% triphenyltetrazolium solution so as to measure the size of the infarction. The quantification of the necrosed area, expressed as % of the area at risk, is obtained by means of image-analysing software."}},
  "data": [
    {"smiles": "CN(C)C(=O)Cc1nn(-c2ccccc2)c(=O)c2c1c1ccc(Cl)cc1n2C", "note": "[Compound No. 1, 7-Chloro-N,N,5-trimethyl-4-oxo-3-phenyl-3,5-dihydro-4H-pyridazino[4,5-b]indole-1-acetamide]", "values": [
      {"measurement": "reduction of creatininaemia compared with the vehicle", "setting": "[1]; at D3", "value": 56, "unit": "%"},
      {"measurement": "reduction of uraemia compared with the vehicle", "setting": "[1]; at D3", "value": 49, "unit": "%"},
      {"measurement": "mortality in the animals", "setting": "[1]; dead/total animals", "value": "1/12"},
      {"measurement": "increase in neuronal survival", "setting": "[2]", "value": 31, "unit": "%"},
      {"measurement": "contracture during reinfusion", "setting": "[3]", "value": "reduces the contracture"},
      {"measurement": "left ventricular pressure, percentage of preischaemic recovery", "setting": "[3]; after 2 h of reinfusion", "value": 65, "unit": "%"},
      {"measurement": "size of the infarction (necrosed area, expressed as % of the area at risk)", "setting": "[3]; compound 1 mM in infusion solution, 30 min ischaemia, 2 h reinfusion", "value": "22±3.3 % of the area at risk"},
      {"measurement": "reduction in the size of the infarction", "setting": "[3]; compound 1 mM in infusion solution, 30 min ischaemia, 2 h reinfusion, vs controls, p<0.01", "value": 47, "unit": "%"},
      {"measurement": "maximum and minimum dP/dt values and double frequency-pressure product", "setting": "[3]; during reinfusion", "value": "significantly restores"}
    ]}
  ]
}
